Values of other authors as cited in US20230024950A1, “METHODS FOR TREATING NEURODEGENERATIVE DISORDERS” (Alzheon, Inc., priority 2019, published 2023).

Columns and labels:
[1] = biological target: Aβ oligomers (Homo sapiens, UniProt P05067); conditions: in vitro
[2] = not given; remark: listed apart in the source

Chain of Aβ oligomers (P05067 672-713 limits assumed): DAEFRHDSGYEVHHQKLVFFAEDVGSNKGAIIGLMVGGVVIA

Structure (SMILES) | plasma exposure compared with tramiprosate from the Phase 3 studies (Phase 1b) | pharmacokinetics and oral tolerability compared with tramiprosate (oral) | formation of Aβ oligomers [1] | safety profile ([2]; Phase 3 trials and safety extension study, exposures of up to 2.5 years) | effect on MRI imaging: brain hippocampal volume (hippocampus atrophy) ([2]; Phase 3 trials, mild-to-moderate AD, dose-dependent) | benefit on cognition ([2]; subgroup analysis of APOE4/4 homozygotes, 100 mg BID or 150 mg BID over 78 weeks) | cognitive efficacy ([2]; subset of APOE4 carriers, especially APOE4/4 homozygotes)
CC(C)[C@H](N)C(=O)NCCCS(=O)(=O)O [ALZ-801, valyl-3-amino-1-propanesulfonic acid] | bioequivalence to plasma exposures to tramiprosate | improved pharmacokinetics and oral tolerability over tramiprosate | – | – | – | – | –
NCCCS(=O)(=O)O [Tramiprosate, 3-amino-1-propanesulfonic acid] | – | – | inhibits the formation of Aβ oligomers in vitro | favorable safety profile | slowing the reduction of brain hippocampal volume | positive and clinically meaningful benefit on cognition | positive cognitive efficacy
